IC50 data for 28 compounds are collected here from patent US7473790B2 (Pfizer Inc., priority 2003, dated 2009).

Each structure is given as a SMILES string.

The target in the experiment is T1, HCV polymerase (Hepatitis C virus genotype 1b, UniProt P26663).
T1 construct: 2.5 pmoles (0.15 μg) HCV polymerase protein in a final volume of 75 μL
T1 sequence (P26663 2420-3010): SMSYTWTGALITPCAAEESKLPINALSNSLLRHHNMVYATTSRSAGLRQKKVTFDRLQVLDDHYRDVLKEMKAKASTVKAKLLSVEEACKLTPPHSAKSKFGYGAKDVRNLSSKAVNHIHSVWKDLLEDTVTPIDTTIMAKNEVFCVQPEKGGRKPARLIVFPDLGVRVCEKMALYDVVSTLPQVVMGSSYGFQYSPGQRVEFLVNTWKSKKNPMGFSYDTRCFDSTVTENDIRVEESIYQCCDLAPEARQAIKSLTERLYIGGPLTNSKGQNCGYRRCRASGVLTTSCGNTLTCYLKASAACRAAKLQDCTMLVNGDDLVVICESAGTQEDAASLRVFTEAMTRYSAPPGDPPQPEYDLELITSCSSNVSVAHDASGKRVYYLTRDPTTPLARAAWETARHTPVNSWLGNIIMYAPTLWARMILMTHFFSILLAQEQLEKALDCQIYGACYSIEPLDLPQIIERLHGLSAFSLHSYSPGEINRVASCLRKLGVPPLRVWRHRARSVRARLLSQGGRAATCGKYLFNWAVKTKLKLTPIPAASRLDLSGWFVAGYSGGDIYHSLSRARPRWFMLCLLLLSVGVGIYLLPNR
Nature of the experiment: HCV polymerase primer/template-directed transcription assay (32P-GTP incorporation, filter binding). In kind it is biochemical. The conditions noted are these: recombinant HCV polymerase; 30 minutes at 30° C.; concentration giving 50% inhibition of polymerase-directed transcription; read-out: IC50. Put shortly: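 Recombinant genotype 1b polymerase (30 nM) extended biotin-dG12 primer on poly(rC)300 template with 1 μM GTP plus α-32P-GTP, pH 7.2, 10 mM MgCl2, 30 min at 30° C, 1% DMSO final. Products captured on DE filters and counted. IC50 fitted from triplicate cpm, with a tight-binding correction applied below 200 nM.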
Broadly, the IC50 is the midpoint of a concentration-inhibition curve. Turning to `COc1cc(OC)c(CCC2(C3CCCC3)CC(O)=C(Sc3nc4nc[nH]c(=O)c4[nH]3)C(=O)O2)cc1Cl` (stereo not shown) [C(70), 8-({6-[2-(5-chloro-2,4-dimethoxyphenyl)ethyl]-6-cyclopentyl-4-hydroxy-2-oxo-5,6-dihydro-2H-pyran-3-yl}thio)-1,7-dihydro-6H-purin-6-one], the IC50 came to 7.4 nM.
Regarding `COc1cc(OC)c(CCC2(C3CCCC3)CC(O)=C(Sc3n[nH]c(-c4ccccc4)n3)C(=O)O2)cc1Cl` (stereo not shown) [C(71), 6-[2-(5-Chloro-2,4-dimethoxyphenyl)ethyl]-6-cyclopentyl-4-hydroxy-3-[(5-phenyl-1H-1,2,4-triazol-3-yl)thio]-5,6-dihydro-2H-pyran-2-one], the IC50 is 58 nM.
As for `COc1cc(OC)c(CCC2(C3CCCC3)CC(O)=C(Sc3nnnn3C)C(=O)O2)cc1Cl` (stereo not shown) [C(72), 6-[2-(5-Chloro-2,4-dimethoxyphenyl)ethyl]-6-cyclopentyl-4-hydroxy-3-[(1-methyl-1H-tetrazol-5-yl)thio]-5,6-dihydro-2H-pyran-2-one], the IC50 stood at 78 nM.
As for `COc1cc(OC)c(CCC2(C3CCCC3)CC(O)=C(Sc3nc4cc(Cl)ccc4n3C(C)C)C(=O)O2)cc1Cl` (stereo not shown) [C(73), 6-[2-(5-Chloro-2,4-dimethoxyphenyl)ethyl]-3-[(5-chloro-1-isopropyl-1H-benzimidazol-2-yl)thio]-6-cyclopentyl-4-hydroxy-5,6-dihydro-2H-pyran-2-one], the IC50 amounted to 35 nM.
Consider `COc1cc(OC)c(CCC2(C3CCCC3)CC(O)=C(Sc3nc(O)cc(C(F)(F)F)n3)C(=O)O2)cc1Cl` (stereo not shown) [C(74), 6-[2-(5-chloro-2,4-dimethoxyphenyl)ethyl]-6-cyclopentyl-4-hydroxy-3-{[4-hydroxy-6-(trifluoromethyl)pyrimidin-2-yl]thio}-5,6-dihydro-2H-pyran-2-one], for which the IC50 amounted to 99 nM.
To `COc1cc(OC)c(CCC2(C3CCCC3)CC(O)=C(Sc3nnc(-c4cccnc4)[nH]3)C(=O)O2)cc1Cl` (stereo not shown) [C(75), 6-[2-(5-chloro-2,4-dimethoxyphenyl)ethyl]-6-cyclopentyl-4-hydroxy-3-[(5-pyridin-3-yl-4H-1,2,4-triazol-3-yl)thio]-5,6-dihydro-2H-pyran-2-one] belongs 44 nM.
Regarding `COc1cc(OC)c(CCC2(C3CCCC3)CC(O)=C(Sc3nc4cc(N)ccc4n3C)C(=O)O2)cc1Cl` (stereo not shown) [C(76), 3-[(5-amino-1-methyl-1H-benzimidazol-2-yl)thio]-6-[2-(5-chloro-2,4-dimethoxyphenyl)ethyl]-6-cyclopentyl-4-hydroxy-5,6-dihydro-2H-pyran-2-one], the IC50 turned out to be 53 nM.
For `COc1cc(OC)c(CCC2(C3CCCC3)CC(O)=C(Sc3ncc(-c4cccnc4)[nH]3)C(=O)O2)cc1Cl` (stereo not shown) [C(77), 6-[2-(5-chloro-2,4-dimethoxyphenyl)ethyl]-6-6cyclopentyl-4-hydroxy-3-[(5-pyridin-3-yl-1H-imidazol-2-yl)thio]-5,6-2H-pyran-2-one], the IC50 was 62 nM.
`COc1cc(OC)c(CCC2(C3CCCC3)CC(O)=C(Sc3nccnc3C)C(=O)O2)cc1Cl` (stereo not shown) [C(78), 6-[2-(5-chloro-2,4-dimethoxyphenyl)ethyl]-6-cyclopentyl-4-hydroxy-3[(3-methylpyrazin-2-yl)thio]-5,6-dihydro-2H-pyran-2-one]: the IC50 amounted to 47 nM.
For `COc1cccc(-c2nnc(SC3=C(O)CC(CCc4cc(Cl)c(OC)cc4OC)(C4CCCC4)OC3=O)n2C)c1` (stereo not shown) [C(79), 6-[2-(5-chloro-2,4-dimethoxyphenyl)ethyl]-6-cyclopentyl-4-hydroxy-3-{[5-(3-methoxyphenyl)-4-methyl-4H-1,2,4-triazol-3-yl]thio}-5,6-dihydro-2H-pyran-2-one], the IC50 came out at 63 nM.
Take `COc1cc(OC)c(CCC2(C3CCCC3)CC(O)=C(Sc3nnc(O)n3C(C)C)C(=O)O2)cc1Cl` (stereo not shown) [C(80), 6-[2-(5-chloro-2,4-dimethoxyphenyl)ethyl]-6-cyclopentyl-4-hydroxy-3-[(5-hydroxy-4-isopropyl-4H-1,2,4-triazol-3-yl)thio]-5,6-dihydro-2H-pyran-2-one]: the IC50 is 31 nM.
For the compound `COc1cc(OC)c(CCC2(C3CCCC3)CC(O)=C(Sc3nnc(-c4ccc(O)cc4)[nH]3)C(=O)O2)cc1Cl` (stereo not shown) [C(81), 6-[2-(5-chlor-2,4-dimethoxyphenyl)ethyl]-6-cyclopentyl-4-hydroxy-3-{[5-(4-hydroxyphenyl)-4H-1,2,4-triazol-3-yl]thio}-5,6-dihydro-2H-pyran-2-one], the IC50 stood at 14 nM.
For `COc1cc(OC)c(CCC2(C3CCCC3)CC(O)=C(Sc3nc4nc(C)ccn4n3)C(=O)O2)cc1Cl` (stereo not shown) [C(82), 6-[2-(5-chloro-2,4-dimethoxyphenyl)ethyl]-6-cyclopentyl-4-hydroxy-3-[(5-methyl[1,2,4]triazolo[1,5-a]pyrimidin-2-yl)thio]-5,6-dihydro-2H-pyran-2-one], the IC50 worked out at 27 nM.
With `COc1cc(OC)c(CCC2(C3CCCC3)CC(O)=C(Sc3nnc(CN(C)C)n3C)C(=O)O2)cc1Cl` (stereo not shown) [C(83)], the IC50 was determined as 40 nM.
As to `COc1cc(OC)c(CCC2(C3CCCC3)CC(O)=C(Sc3nc4ncccn4n3)C(=O)O2)cc1Cl` (stereo not shown) [C(84)], the IC50 was determined as 33 nM.
In the case of `COc1cc(OC)c(CCC2(C3CCCC3)CC(O)=C(Sc3nnc(-c4cccnc4)n3C)C(=O)O2)cc1Cl` (stereo not shown) [C(85), 6-[-(5-chloro-2,4-dimethoxyphenyl)ethyl]-6-cyclopentyl-4-hydroxy-3-[(4-methyl-5-pyridin-3-yl-4H-1,2,4-triazol-3-yl)thio]-5,6-dihydro-2H-pyran-2-one], the IC50 amounted to 35 nM.
Take `COc1cc(OC)c(CCC2(C3CCCC3)CC(O)=C(Sc3nnc(C)n3CCN3CCOCC3)C(=O)O2)cc1Cl` (stereo not shown) [C(86), 6-[2-(5-chloro-2,4-dimethoxyphenyl)ethyl]-6-cyclopentyl-4-hydroxy-3-{[5-methyl-4-(2-morpholin-4-ylethyl)-4H-1,2,4-triazol-3-yl]thio}-5,6-dihydro-2H-pyran-2-one]: the IC50 came to 48 nM.
With `COc1cc(OC)c(CCC2(C3CCCC3)CC(O)=C(Sc3nc4ncc(C)cn4n3)C(=O)O2)cc1Cl` (stereo not shown) [C(87), 6-[2-(5-chloro-2,4-dimethoxyphenyl)ethyl]-6-cyclopentyl-4-hydroxy-3-[(6-methyl[1,2,4]triazolo[1,5-a]pyrimidin-2-yl)thio]-5,6-dihydro-2H-pyran-2-one], the IC50 was 28 nM.
Turning to `COc1cc(OC)c(CCC2(C3CCCC3)CC(O)=C(Sc3nnc(C)n3C)C(=O)O2)cc1Cl` (stereo not shown) [C(88), 6-[2-(5-chloro-2,4-dimethoxyphenyl)ethyl]-6-cyclopentyl-3-[(4,5-dimethyl-4H-1,2,4-triazol-3-yl)thio]-4-hydroxy-5,6-dihydro-2H-pyran-2-one], the IC50 is 22 nM.
For `COC(=O)c1nnc(SC2=C(O)CC(CCc3cc(Cl)c(OC)cc3OC)(C3CCCC3)OC2=O)n1C` (stereo not shown) [C(89), methyl 5-({6-[2-(5-chloro-2,4-dimethoxyphenyl)ethyl]-6-cyclopentyl-4-hydroxy-2-oxo-5,6-dihydro-2H-pyran-3-yl}thio)-4-methyl-4H-1,2,4-triazole-3-carboxylate], the IC50 was found to be 20 nM.
As to `COc1cc(OC)c(CCC2(C3CCCC3)CC(O)=C(Sc3nnc(CCN4CCOCC4)n3C)C(=O)O2)cc1Cl` (stereo not shown) [C(90), 6-[2-(5-chloro-2,4-dimethoxyphenyl)ethyl]-6-cyclopentyl-4-hydroxy-3-{[4-methyl-5-(2-morpholin-4-ylethyl)-4H-1,2,4-triazol-3-yl]thio}-5,6-dihydro-2H-pyran-2-one], the half-maximal inhibitory concentration (IC50) was 40 nM.
Turning to `COc1ccc(CCC2(C3CCCC3)CC(O)=C(Sc3nc4ncnc(O)c4[nH]3)C(=O)O2)cc1Cl` (stereo not shown) [C(91), 3 6-[2-(3-chlor-4-methoxyphenyl)ethyl]-6-cyclopentyl-4-hydroxy-3-[(6-hydroxy-7H-purin-8-yl)thio]-5,6-dihydro-2H-pyran-2-one], the concentration for half-maximal inhibition (IC50) came to 40 nM.
Consider `COc1ccc(CCC2(C3CCCC3)CC(O)=C(Sc3nnc(-c4cccnc4)[nH]3)C(=O)O2)cc1Cl` (stereo not shown) [C(92), 6-[2-(3-chloro-4-methoxyphenyl)ethyl]-6-cyclopentyl-4-hydroxy-3-[(5-pyridin-3-yl-4H-1,2,4-triazol-3-yl)thio]-5,6-dihydro-2H-pyran-2-one], for which the half-inhibitory concentration (IC50) is 82 nM.
Consider `CCOC(=O)c1cnc2nc(SC3=C(O)CC(CCc4cc(Cl)c(OC)cc4OC)(C4CCCC4)OC3=O)nn2c1` (stereo not shown) [C(93), ethyl 2-({6-[2-(5-chloro-2,4-dimethoxyphenyl)ethyl]-6-cyclopentyl-4-hydroxy-2-oxo-5,6-dihydro-2H-pyran-3-yl}thio)[1,2,4]triazolo[1,5-a]pyrimidine-6-carboxylate], for which the IC50 turned out to be 14 nM.
Consider `CCOC(=O)c1cnc2nc(SC3=C(O)CC(CCc4ccc(OC)c(Cl)c4)(C4CCCC4)OC3=O)nn2c1` (stereo not shown) [C(94), ethyl 2-({6-[2-(3-chloro-4-methoxyphenyl)ethyl]-6-cyclopentyl-4-hydroxy-2-oxo-5,6-dihydro-2H-pyran-3-yl}thio)[1,2,4]triazolo[1,5-a]pyrimidine-6-carboxylate], for which the IC50 stood at 87 nM.
To `COc1ccc(CCC2(C3CCCC3)CC(O)=C(Sc3nc4nccc(C)n4n3)C(=O)O2)cc1Cl` (stereo not shown) [C(95), 6-[2-(3-chloro-4-methoxyphenyl)ethyl]-6-cyclopentyl-4-hydroxy-3-[(7-methyl[1,2,4]triazolo[1,5-a]pyrimidin-2-yl)thio]-5,6-dihydro-2H-pyran-2-one] belongs 74 nM; to `COc1ccc(CCC2(C3CCCC3)CC(O)=C(Sc3nnc(-c4cccnc4)n3C)C(=O)O2)cc1Cl` (stereo not shown) [C(96)], 75 nM.
Consider `COc1ccc(CCC2(C3CCCC3)CC(O)=C(Sc3nnc(CN(C)C)n3C)C(=O)O2)cc1Cl` (stereo not shown) [C(97), 6-[2-(3-chloro-4-methoxyphenyl)ethyl]-6-cyclopentyl-3-({5-[(dimethylamino)methyl]-4-methyl-4H-1,2,4-triazol-3-yl}thio)-4-hydroxy-5,6-dihydro-2H-pyran-2-one], for which the IC50 worked out at 120 nM.
